Earlier results on five compounds are cited in patent US8273706B2, “Isobarically labeled analytes and fragment ions derived therefrom” (DH Technologies Development Pte. Ltd., priority 2004, dated 2012).

The pKa is the pH at which an ionisable group is half protonated.

For the data set the following is noted: alcohol (leaving group) whose trifluoroacetate ester forms the active ester of N-methyl piperazine acetic acid.
For `Oc1c(Cl)c(Cl)c(Cl)c(Cl)c1Cl` [Pcp, pentachlorophenol], the pKa is reported as 4.68.
Turning to `O=C1CCCN1O` [NHP, N-hydroxypyrrolidinone], the pKa is 9.38.
On to `O=C1CCC(=O)N1O` [NHS, N-hydroxysuccinimide], for which the pKa is on record as 7.80.
Turning to `O=[N+]([O-])c1cccc(O)c1` [3-NP, 3-nitrophenol], the pKa was 8.33.
For the compound `O=c1c2ccccc2nnn1O` [Dhbt, 3-hydroxy-1,2,3-benzotriazine-4(3H)-one], the pKa was 7.78.
